Inhibition and IC50 data for 17 compounds are collected here from patent publication US8846670B2, “1,2,3,4-tetrahydro-pyrimido(1,2-a)pyrimidin-6-one derivatives, preparation thereof, and pharmaceutical use thereof” (priority 2009, dated 2014).

Common to all, as to type: cell-based
Experiment [1] has as its system P. falciparum (highly chloroquine-resistant strain Fcm29-Cameroon). Description: Antimalarial activity test (radioactive micromethod of Desjardins). The note with it: Plasmodium falciparum, Erythrocyte, infected human erythrocytes, 48 h, tritiated hypoxanthine incorporation. Here is the method:
Antimalarial Activity Test
The P. falciparum strains are cultured in solutions of RPM! […] For each assay, the parasites are incubated with selected concentrations of drugs for 48 h at 37° C. in a humid atmosphere and at 5% CO2. Artemisinin, artesunate and also chloroquine diphosphate are used as reference molecules. The first dilution of the drug is prepared at 1 mg/ml in dimethyl sulphoxide. The range of successive daughter solution dilutions is also prepared in dimethyl sulphoxide. […] These dilutions are then added to the parasites in culture in the microplates. […] The growth of the parasites is measured by incorporation of tritiated hypoxanthine (added 24 h after the beginning of the exposure to the drug) compared with the incorporation in the absence of drug.

Experiment [2] relates to AKT protein phosphorylated on serine 473 (P-AKT-S473) in PC3 human prostate carcinoma line. Briefly: Study of pAKT expression in PC3 human prostate carcinoma cells measured by the MSD Multi-spot Biomarker Detection technique (Test B). The note with it: MSD sandwich immunoassay, 1 to 2 h incubation, absolute IC50, mean of 2 experiments. Here is the method:
The inhibitory activity of the molecules on AKT phosphorylation is measured either by western blotting using the technique described below, or by the MSD Multi-spot Biomarker detection technique from Meso Scale Discovery also described below.
Study of pAKT Expression in PC3Human Prostate Carcinoma Cells Measured by the MSD Multi-Spot Biomarker Detection Technique from Meso Scale Discovery (Test B):
The primary antibody specific for P-AKT-S473 (Kit #K151CAD) is coated onto an electrode in each well of the 96-well plates of the MSD kit: after the addition of a protein lysate to each well, the signal is visualised by adding a secondary detection antibody labelled with an electrochemiluminescent compound. The procedure followed is that described in the kit.
On day 2, the cells are incubated in the presence or absence of the test products for 1 to 2 h at 37° C. in the presence of 5% of CO2. The molecules, diluted in dimethyl sulphoxide (DMSO Sigma #D2650), are added from a 20-times concentrated stock solution, the final percentage of DMSO being 0.1%.
After this incubation, the cells are lysed for the preparation of the proteins. […] At this stage, the plates containing the lysates can be frozen at −20° C. or at −80° C.
The wells of the 96-well plates of the MSD kit are saturated for 1 h at ambient temperature with the blocking solution of the MSD kit. Four washes are carried out with 150 μl of Tris Wash Buffer of the MSD kit. The lysates previously prepared are transferred into the 96-well multi-spot plates of the MSD kit and incubated for 1 h at ambient temperature, with shaking. Four washes are carried out with 150 μl of Tris Wash Buffer of the MSD kit. 25 μl of the MSD sulfo-tag detection antibody solution are added to the wells and incubated for 1 h at ambient temperature, with shaking. Four washes are carried out with 150 μl of Tris Wash Buffer of the MSD kit. 150 μl of Read Buffer of the MSD kit are added to the wells and the plates are read immediately on the S12400 instrument from Meso Scale Discovery.
The instrument measures a signal for each well. Wells without cells and containing the lysis buffer serve to determine the background noise that will be subtracted from all the measurements (min). The wells containing cells in the absence of product and in the presence of 0.1% DMSO are considered to be the 100% signal (max). The percentage inhibition is calculated for each concentration of test product according to the following formula: (1−((test−min)/(max−min)))×100.
2 independent experiments make it possible to calculate the mean of the IC50 values.

Experiment [3] relates to translocation of the LC3 protein in Hela GFP-LC3 cells. Briefly: Study of the translocation of the LC3 protein in Hela human cells, measured by image analysis cytometry (Test C, autophagy). The note with it: 2 h, Hela GFP-LC3 cells with LC3 granulations, EBSS + 10 μM hydroxychloroquine, absolute IC50. How it is done:
The inhibitory activity of the molecules on autophagy is measured by the translocation of the LC3 protein from the cytoplasm to the autophagosomes. For this, Hela cells were transfected with a vector encoding the chimeric protein GFP-LC3. A Hela clone stably expressing the GFP-LC3 protein was selected.
Study of the Translocation of the LC3 Protein in Hela Human Cells, Measured by Image Analysis Cytometry (Test C):
On day 2, the cells are washed twice with EBSS (Sigma #E3024). The cells are then incubated in EBSS, 10 μM of hydroxychloroquine and test products for 2 h at 37° C. in the presence of 5% CO2. The molecules are diluted in dimethyl sulphoxide (DMSO Sigma #D2650), the final DMSO percentage being 0.1%.
After this incubation, the cells are fixed with 4% paraformaldehyde (Sigma #HT501128 4 L) for 10 min. […] The 96-well plates are then read with the iCyte image analysis cytometer (Compucyte).
Two independent experiments make it possible to calculate the mean of the IC50 values.

Where [4] appears, read: Homo sapiens, PC-3, P-AKT-S473 in PC3 cells.

Bounds are passed on as bounds.

In general, inhibition refers to the drop in the measured response relative to a control, in per cent. For `COc1ccccc1[C@H](O)CN1c2nc(N3CCOCC3)cc(=O)n2CC[C@H]1C(F)(F)F` [Example 51, 9-[(S)-2-Hydroxy-2-(2-methoxyphenyl)ethyl]-2-morpholin-4-yl-8-(S)-trifluoromethyl-6,7,8,9-tetrahydropyrimido[1,2-a]pyrimidin-4-one], in experiment [1], the inhibition at 0.1 µM was 75% and the inhibition at 1 µM came to 99%.

Take `O=c1cc(N2CCOCC2)nc2n1CC[C@@H](C(F)(F)F)N2CC(O)Cc1ccccc1` (stereo partly drawn) [Example 55, 9-(2-Hydroxy-3-phenylpropyl)-2-morpholin-4-yl-8-(S)-trifluoromethyl-6,7,8,9-tetrahydropyrimido[1,2-a]pyrimidin-4-one]: in experiment [1], the inhibition at 0.1 µM amounted to 81% and the inhibition at 1 µM was found to be 93%.

As usually defined, the IC50 is the concentration that inhibits the measured activity by half. With `O=c1cc(N2CCOCC2)nc2n1CC[C@@H](C(F)(F)F)N2c1ccc(F)cc1` [Example 13, (8S)-9-(4-fluorophenyl)-2-(morpholin-4-yl)-8-(trifluoromethyl)-6,7,8,9-tetrahydro-4H-pyrimido[1,2-a]pyrimidin-4-one], the IC50 in experiment [2] (setting [4]) came to 25 nM; in experiment [3] (Homo sapiens, HeLa) it was 632 nM. Also, the inhibition at 1 µM in experiment [1] turned out to be 52%.

With `O=c1cc(N2CCOCC2)nc2n1CC[C@@H](C(F)(F)F)N2C[C@@H](O)c1cccc(O)c1` [Example 49, 9-[(S)-2-Hydroxy-2-(3-hydroxyphenyl)ethyl]-2-morpholin-4-yl-8-(S)-trifluoromethyl-6,7,8,9-tetrahydropyrimido[1,2-a]pyrimidin-4-one], in experiment [1], the inhibition at 0.1 µM worked out at 81% and the inhibition at 1 µM is 99%.

In the case of `COc1cc(F)ccc1[C@H](O)CN1c2nc(N3CCOCC3)cc(=O)n2CC[C@H]1C(F)(F)F` [Example 52, 9-[(S)-2-(4-Fluoro-2-methoxyphenyl)-2-hydroxyethyl]-2-morpholin-4-yl-8-(S)-trifluoromethyl-6,7,8,9-tetrahydro-pyrimido[1,2-a]pyrimidin-4-one], in experiment [1], the inhibition at 0.1 µM was 75% and the inhibition at 1 µM is 99%.

`COc1ccc([C@H](O)CN2c3nc(N4CCOCC4)cc(=O)n3CC[C@H]2C(F)(F)F)c(Cl)c1` [Example 54, 9-[(S)-2-(2-Chloro-4-methoxyphenyl)-2-hydroxyethyl]-2-morpholin-4-yl-8-(S)-trifluoromethyl-6,7,8,9-tetrahydro-pyrimido[1,2-a]pyrimidin-4-one]: in experiment [1], the inhibition at 0.1 µM came to 83% and the inhibition at 1 µM worked out at 99%.

For the compound `CN(C)CC(=O)Nc1cccc([C@H](O)CN2c3nc(N4CCOCC4)cc(=O)n3CC[C@H]2C(F)(F)F)c1` [Example 50, 2-Dimethylamino-N-{3-[(S)-1-hydroxy-2-((S)-8-morpholin-4-yl-6-oxo-2-trifluoromethyl-3,4-dihydro-2H,6H-pyrimido[1,2-a]pyrimidin-1-yl)ethyl]phenyl}acetamide], in experiment [1], the inhibition at 0.1 µM is 79% and the inhibition at 1 µM came out at 99%.

For `O=c1cc(N2CCOCC2)nc2n1CC[C@@H](C(F)(F)F)N2Cc1ccc(F)cc1F` [Example 30, (8S)-9-(2,4-difluorobenzyl)-2-(morpholin-4-yl)-8-(trifluoro-methyl)-6,7,8,9-tetrahydro-4H-pyrimido[1,2-a]pyrimidin-4-one], the IC50 in experiment [2] (setting [4]) came to 43 nM; in experiment [3] (Homo sapiens, HeLa) it was 212 nM.

`O=c1cc(N2CCOCC2)nc2n1CC[C@@H](C(F)(F)F)N2c1cccc(F)c1` [Example 14, (8S)-9-(3-fluorophenyl)-2-(morpholin-4-yl)-8-(trifluoromethyl)-6,7,8,9-tetrahydro-4H-pyrimido[1,2-a]pyrimidin-4-one]: the IC50 came out at 15 nM in experiment [2] (setting [4]) and 337 nM in experiment [3] (Homo sapiens, HeLa).

Consider `O=c1cc(N2CCOCC2)nc2n1CC[C@@H](C(F)(F)F)N2CCc1ccc(O)cc1` [Example 56, 9-[2-(4-Hydroxyphenyl)ethyl]-2-morpholin-4-yl-8-(S)-trifluoromethyl-6,7,8,9-tetrahydropyrimido[1,2-a]pyrimidin-4-one], for which, in experiment [1], the inhibition at 0.1 µM came out at 94% and the inhibition at 1 µM amounted to 99%.

As for `O=c1c(F)c(N2CCOCC2)nc2n1CC[C@@H](C(F)(F)F)N2Cc1ccccc1` [Example 41, (8S)-9-benzyl-3-fluoro-2-(morpholin-4-yl)-8-(trifluoro-methyl)-6,7,8,9-tetrahydro-4 H-pyrimido[1,2-a]pyrimidin-4-one], the IC50 in experiment [2] (setting [4]) amounted to 4 nM; in experiment [3] (Homo sapiens, HeLa), 192 nM.

Take `O=c1cc(N2CCOCC2)nc2n1CC[C@@H](C(F)(F)F)N2c1cccnc1` [Example 19, (S)-2-morpholin-4-yl-9-pyridin-3-yl-8-trifluoromethyl-6,7,8,9-tetrahydropyrimido[1,2-a]pyrimidin-4-one]: the IC50 was 39 nM in experiment [2] (setting [4]) and above 1000 nM in experiment [3] (Homo sapiens, HeLa).

As to `C[C@H](c1ccc(Br)cc1)N1c2nc(N3CCOCC3)cc(=O)n2CC[C@H]1C(F)(F)F` (single isomer, unassigned) [Example 11, (8S)-9-[(1S or 1R)-1-(4-bromophenyl)ethyl]-2-(morpholin-4-yl)-8-(trifluoromethyl)-6,7,8,9-tetrahydro-4H-pyrimido[1,2-a]pyrimidin-4-one], the IC50 in experiment [2] (setting [4]) turned out to be 46 nM; in experiment [3] (Homo sapiens, HeLa), 319 nM.

For the compound `O=c1cc(N2CCOCC2)nc2n1CC[C@@H](C(F)(F)F)N2c1ccc(C(F)(F)F)cc1` [Example 37, (8S)-2-(morpholin-4-yl)-8-(trifluoromethyl)-9-[4-(trifluoro-methyl)phenyl]-6,7,8,9-tetrahydro-4H-pyrimido[1,2-a]pyrimidin-4-one], the IC50 in experiment [2] (setting [4]) is 18 nM; in experiment [3] (Homo sapiens, HeLa), 270 nM.

In the case of `CC(c1ccc(F)cc1)N1c2nc(N3CCOCC3)cc(=O)n2CC[C@H]1C(F)(F)F` (single isomer, unassigned) [Example 34, (8S)-9-[(1R or 1S)-1-(4-fluorophenyl)ethyl]-2-(morpholin-4-yl)-8-(trifluoromethyl)-6,7,8,9-tetrahydro-4H-pyrimido[1,2-a]pyrimidin-4-one], the IC50 in experiment [2] (P-AKT-S473 in PC3 cells) stood at 22 nM; in experiment [3], 35 nM.

Turning to `O=c1cc(N2CCOCC2)nc2n1CC[C@@H](C(F)(F)F)N2C[C@@H](O)c1cc2ccccc2s1` [Example 48, 9-((R)-2-Benzo[b]thiophen-2-yl-2-hydroxyethyl)-2-morpholin-4-yl-8-(S)-trifluoromethyl-6,7,8,9-tetrahydro-pyrimido[1,2-a]pyrimidin-4-one], in experiment [1], the inhibition at 0.1 µM was determined as 89% and the inhibition at 1 µM worked out at 96%.

For `COc1cc(Cl)ccc1[C@H](O)CN1c2nc(N3CCOCC3)cc(=O)n2CC[C@H]1C(F)(F)F` [Example 53, 9-[(S)-2-(4-Chloro-2-methoxyphenyl)-2-hydroxyethyl]-2-morpholin-4-yl-8-(S)-trifluoromethyl-6,7,8,9-tetrahydro-pyrimido[1,2-a]pyrimidin-4-one], in experiment [1], the inhibition at 0.1 µM stood at 75% and the inhibition at 1 µM was 99%.
